Measured values from patent US8906393B2, “Biofilm inhibiting composition” (Rutgers, The State University of New Jersey, priority 2011, dated 2014).

How the values were obtained:
[1] = test system: S. aureus strain SH1000; experiment: Biofilm inhibition assay (96-well microtiter plate crystal violet binding); format: cell-based, Staphylococcus aureus
Procedure: (§1) Biofilm inhibition assay. Biofilms were cultured in 96-well polystyrene microtiter plates as previously described. Briefly, cells were diluted to 104 to […] CFU/ml in TSB supplemented with 0.1 vol of PAM extract, or 0.1 vol of water as a control. Aliquots of cells (200 μl each) were transferred to the wells of a microtiter plate, and the plate was incubated at 37° C. for 18 h. Biofilms were washed with water and stained for 1 min with 200 μl of Gram's crystal violet. Stained biofilms were rinsed with water and dried. The amount of crystal violet binding was quantitated by destaining the biofilms for 10 min with 200 μl of 33% acetic acid, and then measuring the absorbance of the crystal violet solution at 595 nm. All assays were performed 3-5 times with similarly significant decreases in absorbance values.
Expressing the K. kingae pam genes in E. coli. Plasmids pGEM-T, pMB10, pMB5 and pMB9 were transformed into E. coli strain JM109. Transformants were selected on agar supplemented with 50 μg/ml ampicillin. Lawns of transformants were grown on agar plates supplemented with 50 μg/ml ampicillin and 1 mM IPTG. Lawns were harvested and cell-free extracts were prepared by ultracentrifugation as described above. Extracts were sterilized by passage through a 0.22-μm filter, incubated at 100° C. for 15 min, and then tested for activity in the biofilm inhibition assay described above.

[2] = test system: K. kingae; experiment: Biofilm inhibition assay (96-well microtiter plate); format: cell-based, Kingella kingae; settings: K. kingae PYKK181; crystal violet
Procedure: as §1

[3] = test system: K. pneumoniae; experiment: as above; format: cell-based, Klebsiella pneumoniae; settings: K. pneumoniae 1840; crystal violet
Procedure: as §1

Measured: biofilm-inhibiting activity of purified PAM galactan

→3)-β-D-Galf-(1→6)-β-D-Galf-(1→ [PAM galactan]
exhibited biofilm-inhibiting activity: all assays above
